How the values were obtained:
Type in all cases: in vivo
mung bean cuttings = experiment: rooting of mung bean cuttings (number of adventitious roots per cutting); details: for effect on AR formation in mung bean cuttings, in words: tested at 2, 10 or 50 μM
How it was run: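 Readout was the number of adventitious roots per cutting in mung bean cuttings. Conjugates of 4-CPA, MCPA and 2-DP were tested alongside unconjugated IBA and 2-DP–glycine methyl ester.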

DR5:venus marker = experiment: auxin activity by DR5:venus fluorescence in Arabidopsis plants; details: 10 μM
How it was run: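 Arabidopsis seedlings expressing nuclear DR5:venus, grown four days on MS medium, then transferred to plates with 10 μM compound for 24 h. Nuclear fluorescence imaged by confocal microscopy and averaged per segmented nucleus as auxin-activity readout; MS medium served as negative control.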

Arabidopsis seedlings [1] = experiment: root elongation inhibition in Arabidopsis seedlings; details: for effect on root elongation relative to control, in words: after 5 days
Arabidopsis seedlings [2] = experiment: adventitious root formation in intact etiolated Arabidopsis seedlings; details: intact etiolated seedlings; 50 nM, FIG. 17 legend 10 μM for one hour
Method: Adventitious roots (ARs) were induced in intact plants, using previously described procedures [Gutierrez et al., Plant Cell 2009, 21:3119-3132; Abu-Abied et al., Plant J 2012, 71:787-799; Rasmussen et al., Plant Physiol 2012, 158:1976-1987]. Briefly, seeds were germinated on MS/0.8% agar plates supplemented with 3% sucrose. The plates were kept in the dark for 2 days at 4° C., then 5 days at 22° C. in the dark, 2 days in the light, 3 days in the dark and then additional 4 days in the light to complete 2 weeks when roots were counted using a stereoscope. Sensitivity to auxin and/or auxin analogs was determined by following root elongation on vertical plates. The 4-day-old seedlings were transferred to MS plates containing 0.05 or 0.5 μM IAA and the root length was measured after 5 days, including the number of LRs in each root and calculation of the LR density. Each treatment experiment included 10-15 plants and was repeated 3 times.
In a third assay utilizing an Arabidopsis model, induction of adventitious root AR formation in intact plants was examined in the presence of 50 nM of tested compounds, which included 5 days incubation in the dark, followed by a shift to the light, according to procedures described by Sorin et al. [Plant Cell 2005, 17:1343-1359].
Conjugates prepared as described herein were evaluated in an Arabidopsis rooting model, according to procedures such as described hereinabove. Seeds were germinated and kept in the dark for 4 days. The etiolated seedlings were then incubated for 1 hour in 10 μM of each compound and then transferred to vertical MS medium-containing plates.

[3] = system: Eucalyptus x trabutii cuttings; experiment: rooting of Eucalyptus x trabutii cuttings; details: for mean root number per cutting, E. x trabutii: K-IBA alone or with 100 μM compound; for callus formation in E. x trabutii / mean root number and mean root length, E. x trabutii, relative to IBA alone, in words / rooting rate of E. x trabutii compared with IBA alone, in words: K-IBA with 100 μM compound
Method: In order to investigate cloning of productive eucalyptus trees from cuttings, branches were excised from mature Eucalyptus x trabutii and Eucalyptus brachyphylla trees the field (in Kfar Pines, Israel)—selected based on their exceptional nectar production and honeybee attraction—placed in a humidified cooler box and brought to a climate-controlled greenhouse within 2 hours. Each cutting, 7 cm long, included three nodes with only two leaves remaining at its apical end. Two-thirds of each blade was excised to minimize evapotranspiration. The cutting bases were submerged for 1 minute in 6 grams/liter indole-3-butyric acid potassium salt (K-IBA), optionally supplemented with Compound 1s or 1t at a concentration of 100 μM. In addition, the leaves were sprayed with 100 μM of each compound in the presence of 0.05% Triton X-100 surfactant. Stock solutions of Compounds 1s and 1t were at a concentration of 100 mM in DMSO. The cuttings were planted in rooting medium containing peat, vermiculite and polystyrene flakes at a ratio of 1:2:3 respectively, on a heated rooting table under 90% humidity. Fungicides were applied to the rooting media on a weekly basis. Rooting percentage, number of roots per cutting and root length were measured after 1 and 2 weeks and after 1 and 2 months.

Arabidopsis seedlings [4] = experiment: split petri dish assay, separate shoot or root application in etiolated Arabidopsis seedlings; details: 10 μM; for adventitious root formation, exposure of shoots compared to exposure of roots / lateral root formation, shoot application compared with root application: split dish
Description: The observation that AR enhancement in Eucalyptus cuttings was higher when 4-CPA conjugates were applied also to the leaves (as described in Example 3) prompted further investigation into the functions of shoot-derived 4-CPA. To this end, 4-CPA or Compounds 1p and it were applied specifically to roots or shoots of five-day old etiolated Arabidopsis seedlings using a split petri dish (as depicted in FIG. 26) and the effect on root elongation, lateral root (LR) formation and adventitious root (AR) formation was evaluated.
Arabidopsis plants were germinated and grown in the dark for 5 days, then then transferred to petri dishes with a partition in the middle. Each half of these plates contained either medium alone or with 10 μM of 4-CPA or Compound 1p or 1tl. The etiolated seedlings were put on the plates with their collet region on the partition such that either the hypocotyl and cotyledons, or the root or both were in touch with the medium containing the tested compound. Adventitious roots and lateral roots were counted and the length of the primary root was measured after a week.

[5] = system: cuttings from mature Eucalyptus grandis trees; experiment: rooting of cuttings from mature Eucalyptus grandis trees; details: 100 μM compound by submerging or spraying, with 6000 ppm IBA
[6] = 4 day old seedlings, 5 days on vertical plates

Compound	effect on AR formation in mung bean cuttings, in words (mung bean cuttings)	DR5 fluorescence (auxin activity), in words (DR5:venus marker)	effect on root tip and root elongation zone (DR5:venus marker)	effect on root elongation relative to control, in words (Arabidopsis seedlings [1]; 50 nM)	time course of root elongation inhibition (Arabidopsis seedlings [1]; 50 nM, slight inhibition until day 3, complete from day 4)	adventitious roots formed on average (Arabidopsis seedlings [2])	mean root number per cutting, E. x trabutii [3]	callus formation in E. x trabutii [3]	mean root number and mean root length, E. x trabutii, relative to IBA alone, in words [3]	rooting rate of E. x trabutii compared with IBA alone, in words [3]	effect on root growth of application to the shoot compared with application directly to the root (Arabidopsis seedlings [4]; 24 hours on split dish)	adventitious root formation, exposure of shoots compared to exposure of roots (Arabidopsis seedlings [4])	lateral root formation, shoot application compared with root application (Arabidopsis seedlings [4])	rooting in combination with IBA compared with IBA alone, in words [5]	appearance of the base of mung bean cuttings (mung bean cuttings; FIGS. 4A, 4B)	potency in promoting DR5 fluorescence relative to Compound 1t (DR5:venus marker; fluorescent intensity)	concentration that inhibited root elongation significantly (Arabidopsis seedlings [1]; [6]) [nM]	concentration that inhibited root elongation totally (Arabidopsis seedlings [1]; [6]) [nM]
COC(=O)[C@H](Cc1c[nH]c2ccccc12)NC(=O)COc1ccc(Cl)cc1 [Compound 1t, 4-CPA-L-Trp]	induced rooting only at low concentrations	the most potent conjugate	loss of auxin activity at the root tip, and swelling of the root elongation zone	inhibited root elongation relative to control	biphasic behavior	4.7±0.9	about 5	no calluses were observed	no apparent effect	considerably higher	comparable	significantly more adventitious root formation	inhibited lateral root formation more efficiently than application to roots	at least as potent as that of their corresponding D-amino acid conjugates	–	–	–	–
O=C(O)COc1ccc(Cl)cc1 [Compound 4-CPA, 4-chloro-phenoxyacetic acid, reference compound]	induced a similar rooting rate only at the lowest tested concentration of 2 μM	promoted fluorescence most strongly	loss of auxin activity at the root tip, and swelling of the root elongation zone	–	–	0.8±0.4	–	–	–	–	–	significantly more adventitious root formation	inhibited lateral root formation more efficiently than application to roots	considerably less effective	appeared swollen, but no AR developed	about 2 fold	50	100
COC(=O)[C@@H](Cc1c[nH]c2ccccc12)NC(=O)COc1ccc(Cl)cc1 [Compound 1s, 4-CPA-D-Trp]	induced rooting to a degree positively correlated with concentration	significantly lower fluorescence	–	did not affect root elongation	–	0.5±0.3	about 5	no calluses were observed	no apparent effect	considerably higher	–	–	–	–	–	–	–	–

— US20220030866A1, “CONJUGATES OF AUXIN ANALOGS” (The State of Israel, Ministry of Agriculture & Rural …, priority 2019, published 2022)
